Results from the METLIN SMRT retention time set (Domingo-Almenara et al. 2019).

Assay: gradient 5% acetonitrile 3 min, to 50% in 2 min, to 85% in 15 min, held 3 min, 100 µL/min
Details: column: Zorbax Extend-C18 2.1 x 50 mm; eluents: water / acetonitrile, 0.1% formic acid
Summary of the method: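 In both positive and negative ionization mode, a quadrupole time-of-flight mass spectrometer coupled to HPLC analyzed pure standards run in mixtures of ~100 molecules. The Zorbax Extend-C18 column (2.1 × 50 mm, 1.8 μm) was operated at 100 μL/min with water and acetonitrile, each containing 0.1% formic acid. The dead volume was 40 μL and the dwell volume 900 μL. Retention time came from adduct peaks that were computationally picked and individually inspected by hand.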

Row | RP-LC retention time | Structure (SMILES)
1 | 899 s | O=C1C(c2cccs2)N(Cc2ccc3c(c2)OCO3)C(=O)CN1c1ccccc1 (stereo not given)
2 | 882 s | Cc1ccc(NC2CC(=O)N(c3cccc([N+](=O)[O-])c3)C2=O)cc1 (stereo not given)
3 | 915 s | Cc1cc(C)c(C)c(S(=O)(=O)Nc2ccc3c(c2)OCO3)c1C
4 | 885 s | CCn1cc(C(=O)NC(C)c2ccc(OC)c(OC)c2)c(=O)c2ccc(C)nc21 (stereo not given)
5 | 982 s | CCc1nn2c(CNS(=O)(=O)c3ccc(F)c(F)c3)c(-c3ccccc3)nc2s1
6 | 581 s | O=C(NCCN1CCN(C(=O)NCCCc2ccccc2)CC1)c1ccc2c(c1)OCO2
7 | 944 s | CCc1ccc(S(=O)(=O)c2cnc(N3CCC4(CC3)OCCO4)nc2N)cc1
8 | 935 s | COc1ccc(CNC(=O)C2(C)CCN(C(=O)Nc3ccc(C)c(Cl)c3)CC2)cc1
9 | 625 s | Cc1sc(NC(=O)c2ccccc2)c(CN(C)C)c1C
10 | 682 s | Cc1ccc2oc(-c3noc(C(=O)NCCN(C)C)n3)c(C)c2c1
11 | 662 s | COC(=O)c1scc(-c2ccccc2)c1S(=O)(=O)N1CCC(C(N)=O)(N2CCCCC2)CC1
12 | 841 s | Cc1ccc(CN2CCN(C3CCN(C(=O)Nc4ccc5c(c4)OCO5)CC3)C2=O)cc1
13 | 720 s | CCCc1cnc2c(c1SC(C(C)=O)C(=O)N(C)C)c(=O)n(C)c(=O)n2C (stereo not given)
14 | 593 s | CCN1CCN(CCNC(=O)c2cc3n(n2)CCCN(Cc2ccc(F)cc2)C3=O)CC1
15 | 606 s | O=C(NCc1ccc(N2CCOCC2)nc1)c1cc(F)cc(F)c1
16 | 1150 s | COc1cccc(CNS(=O)(=O)c2ccccc2-c2nc(-c3cccc(F)c3)no2)c1
17 | 1010 s | O=C(Cn1nc(C(=O)N2CCCCC2)c2ccccc21)N1CCN(c2cccc(Cl)c2)CC1
18 | 1010 s | O=C(C1CC(=O)N(c2cccc(-c3noc(C4CCC4)n3)c2)C1)N1CCN(c2ccccc2)CC1 (stereo not given)
19 | 950 s | CCc1noc2cc(-c3ccccc3)n(C)c(=O)c12
20 | 819 s | COc1ccc(C(=O)N2CCN(c3ccc(-c4nc(C)cs4)cn3)CC2)cc1F
21 | 600 s | Cc1noc(C)c1S(=O)(=O)N1CC(CN(C)C)C2(CCOCC2)C1 (stereo not given)
22 | 587 s | CCN(CC)CCNC(=O)c1ccc(-c2ccccc2)cc1
23 | 586 s | COc1cccc(-c2[nH]ncc2CN2CCC3(CCC3O)CC2)c1 (stereo not given)

Row | RP-LC retention time | Structure (SMILES)
24 | 897 s | Cc1cccc(-c2noc(C3CCCN3C(=O)NC(C)C)n2)c1 (stereo not given)
25 | 664 s | CC1CCCCN1CCNC(=O)c1ccc2ccnc(N3CCN(c4ccc(Cl)cc4)CC3)c2c1 (stereo not given)
26 | 695 s | CCN(CC)CCNC(=O)c1nc(-c2oc3ccc(C)cc3c2C)no1
27 | 715 s | O=C(NCCc1ccccc1)N1CCC(c2noc(-c3cnccn3)n2)C1 (stereo not given)
28 | 613 s | NS(=O)(=O)c1ccc2nc(NC(=O)C3=COCCO3)sc2c1
29 | 672 s | COc1cc(NC(=O)CCc2c(-c3ccc(F)cc3)nc3ccccn23)cc(OC)c1
30 | 574 s | CNC(=O)N1CCCC(Cn2cnc3cccnc32)C1 (stereo not given)
31 | 668 s | CCCNc1cc(-n2cccn2)ncn1
32 | 816 s | COc1ccc(-c2nnc(COc3cccc(NC(=O)CNC(=O)Cc4ccccc4)c3)o2)cc1
33 | 860 s | O=C(NCCCn1c(C(F)(F)F)nc2cccnc21)Nc1ccccc1Br
34 | 570 s | CS(=O)(=O)NCC1CCC(C(=O)NCCCn2ccnc2)CC1 (stereo not given)
35 | 839 s | O=S(=O)(c1cc(-c2nnc(C3CC3)o2)co1)N1CCCCC1
36 | 799 s | O=C(Cn1cc(-c2ccccc2)c2ncn(C3CC3)c(=O)c21)NCc1ccco1
37 | 946 s | CCc1cccc(C)c1NC(=O)COc1cc(C)nc(N2CCN(c3ccccc3)CC2)n1
38 | 812 s | Cc1ccc2nc(-c3ccc(N(C)C)cc3)c(Nc3ccccc3C)n2c1
39 | 743 s | Cc1cc(NC(=O)c2cn3c(n2)CSCC3)ccc1F
40 | 520 s | O=C(NC1CCS(=O)(=O)C1)c1ccc(N2CCCC2)nn1 (stereo not given)
41 | 547 s | Cc1nc(-n2cccc2)sc1C(=O)NCCN(C)C
42 | 818 s | O=C(O)CCCC(=O)Nc1nc(-c2cccc3ccccc23)cs1
43 | 939 s | Cc1ccc(S(=O)(=O)N2C[C@H](c3nc(-c4cccnc4)no3)[C@@H](C)C2)cc1
44 | 759 s | Cn1nccc1C(=O)NCc1ccc2c(c1)CCN2C(=O)c1ccccc1
45 | 814 s | O=C(COc1ccc(Cl)cc1)N1CCN(c2cc(-c3ccccc3)[nH]n2)CC1
46 | 895 s | CCCn1cc(C(=O)Nc2ccc(N3CCOCC3)cc2)c2cccnc21

Row | RP-LC retention time | Structure (SMILES)
47 | 686 s | COCCC1CCN(C(=O)CN(C)C(=O)c2ccc3cc[nH]c3c2)CC1
48 | 609 s | COCC1CN(Cc2cn[nH]c2-c2ccccc2)CCC1(F)F (stereo not given)
49 | 703 s | CCC(=O)NCc1csc(C2CCCN(C(=O)CC(C)(C)C)C2)n1 (stereo not given)
50 | 920 s | CC1CCCN(S(=O)(=O)c2ccc(-n3cnc(C(=O)N4CCCCCC4)c3)nc2)C1 (stereo not given)
51 | 979 s | Cc1cccc(-c2nnc(Cc3nc(-c4cccs4)no3)o2)c1
52 | 836 s | Cc1noc(-c2ccnc(-n3ncc(C(=O)NC4CCCC4)c3C)c2)n1
53 | 612 s | COCCC(=O)N1CCOc2ccc(N(C)C)cc2C1
54 | 589 s | O=C(Cn1cnc2nc(N3CCC(C(=O)NC4CC4)CC3)sc2c1=O)NCC1CCCO1 (stereo not given)
55 | 911 s | Cn1cc(-c2nc(C(=O)N3CCN(c4ccccc4)CC3)cs2)c2cccnc21
56 | 932 s | COC(=O)c1[nH]c(C)c(C(=O)C(C)N(CC(C)C)C(=O)c2ccccc2Cl)c1C (stereo not given)
57 | 963 s | O=C(c1ccccc1Br)N1CCc2nc(-c3ccccc3)ncc2C1
58 | 932 s | COC(=O)C1=CN(C2CC2)c2cc(N3CCCCC3)c(F)cc2S1(=O)=O
59 | 621 s | CO[C@H]1C(=O)N(C(C)C)[C@H]1C1CCN(C(=O)c2cnccn2)CC1
60 | 556 s | Cc1cccc2nnc(N3CCN(C(=O)c4ccc5c(c4)OCO5)CC3)n12
61 | 892 s | CC(C)(C)NC(=O)N1CCOc2ccccc21
62 | 1120 s | CCOc1ccccc1N1CCN(C(=O)CSc2nccnc2Oc2ccccc2C)CC1
63 | 1120 s | O=c1c2cc(-c3ccc(F)cc3)nn2ccn1Cc1ccccc1Cl
64 | 1060 s | CCC(c1cccs1)N1C(=O)[C@H]2CN(S(=O)(=O)c3ccc(Cl)cc3)C[C@H]2C1=O (stereo not given in full)
65 | 1010 s | CC1Oc2ccc(-c3csc(NC(=O)c4ccc(F)cc4)n3)cc2N(C)C1=O (stereo not given)
66 | 719 s | CN1C(=O)C(F)=C[C@]2(C)[C@H]3CC[C@]4(C)[C@@H](C(=O)NCc5nc6ncccc6[nH]5)CC[C@H]4[C@@H]3CC[C@@H]12
67 | 756 s | O=C(NCc1ccccc1F)C1CCCN(c2nnc3ccc(Cl)cn23)C1 (stereo not given)
68 | 684 s | COc1cccc(OC)c1OCC(O)CN1CCN(c2ccccc2F)CC1 (stereo not given)
69 | 610 s | O=C(c1cscn1)N1CCc2nn(CC3CC3)c(=O)n2CC1

Row | RP-LC retention time | Structure (SMILES)
70 | 857 s | Cc1ccc(CNC(=O)Cn2c(=O)cc(-c3nc(C)no3)c3ccccc32)cc1
71 | 768 s | CN1c2c(Cl)cccc2C(=O)NC12CCN(C(=O)c1ccccc1)CC2
72 | 940 s | CCCc1noc(-c2ccc3nnc(CC(=O)Nc4ccc(C)c(C)c4)n3c2)n1
73 | 773 s | Cc1ccc(NC(=O)NCC(c2cccnc2)c2cn(C)c3ccccc23)cc1Cl (stereo not given)
74 | 580 s | CN(C)CCCn1c(C2CC(=O)N(c3ccccc3F)C2)nc2ccccc21 (stereo not given)
75 | 698 s | CC(C)C(=O)N1CCc2cc(C(=O)NC3CC3)ccc21
76 | 602 s | CC(C)N1CCN(C(=O)c2cn3ccnc(-c4ccccc4)c3n2)CC1
77 | 668 s | Cn1c(C(=O)NCCCN2CCCC2=O)cc2c(=O)oc3ccccc3c21
78 | 767 s | O=S(=O)(CCOc1ccc(F)cc1)Nc1ccc(N2CCOCC2)cc1
79 | 750 s | CC(=O)Nc1cccc(-c2nc(-c3ccc4c(c3)oc(=O)n4C)no2)c1C
80 | 909 s | Cc1ccc2ncn(C3CCN(S(=O)(=O)c4cccc(F)c4)CC3)c(=O)c2c1
81 | 610 s | O=C(NCc1ccc(F)cc1)NC1CCCN(c2cc(-c3ccncc3)[nH]n2)C1 (stereo not given)
82 | 748 s | CN(c1nccn2c(=O)n(CC(=O)Nc3ccccc3F)nc12)C1CCCCC1
83 | 712 s | Cc1cnc(-c2ccccc2)n1C1CCCN(S(=O)(=O)c2ccc3c(c2)OCCO3)C1 (stereo not given)
84 | 717 s | NC(=O)C1CCN(C(c2cccc(Cl)c2)c2sc3nc(-c4ccco4)nn3c2O)CC1 (stereo not given)
85 | 964 s | CC1CCN(S(=O)(=O)c2ccc(-c3nnc(C(C)C)o3)o2)CC1
86 | 700 s | O=C(CSc1ccc(N2CCCC(C(=O)NC3CC3)C2)nn1)Nc1ccc(Cl)cc1F (stereo not given)
87 | 939 s | Clc1cccc(-c2nc3ccc(Cl)cn3c2Nc2ccc3c(c2)OCCO3)c1
88 | 952 s | Cc1ccc(CNC(=O)c2cccc(C3CCCN(C(=O)NC(C)C)C3)c2)cc1C (stereo not given)
89 | 840 s | CCCCOc1ccc(C(=O)Nc2cccc(C)n2)cc1

Row | Structure (SMILES) | RP-LC retention time
90 | COc1ccc2c(c1)C1(CCN(C(=O)NC3CCCCC3)C1)C(=O)N2 (stereo not given) | 703 s
